Each structure is given as a SMILES string.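 Interpolation was linear, between the two tested concentrations surrounding the appropriate level; five concentrations were tested over 48 hours in 96-well plates. Here, GI50 denotes the concentration required for 50% inhibition of growth. At the TGI there is no net growth.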

The values below come from PubChem BioAssay (NCI).

Among the test systems are SN12C renal; IGROV1 ovarian; MDA-MB-231 breast; OVCAR-8 ovarian; UO-31 renal; SF-539 CNS; SNB-19 CNS; SF-295 CNS; SNB-75 CNS; RPMI-8226 leukemia.
What all share (experiment): inhibition of tumour cell growth, NCI panel, 48 h

As for `COc1ccc(C(=O)c2sc3nc(-c4ccccc4OC)ccc3c2N)cc1OC`, the GI50 was 7.95 µM in the experiment with SN12C renal; 20.3 µM in the experiment with IGROV1 ovarian; 3.44 µM in the experiment with MDA-MB-231 breast; 4.02 µM with OVCAR-8 ovarian; 5.26 µM in the experiment with UO-31 renal; 20 µM in the experiment on SF-539 CNS. Also, the GI50 in the experiment with SNB-19 CNS was 22.8 µM; in the experiment on SF-295 CNS, 4.37 µM; in the experiment with SNB-75 CNS, 4.34 µM; in the experiment with RPMI-8226 leukemia it was 2.7 µM. The TGI was more than 100 µM with SN12C renal; more than 100 µM in the experiment with IGROV1 ovarian; 42.3 µM in the experiment on MDA-MB-231 breast; more than 100 µM in the experiment with OVCAR-8 ovarian; more than 100 µM in the experiment with UO-31 renal; more than 100 µM in the experiment with SF-539 CNS. Also, the TGI with SNB-19 CNS is more than 100 µM; in the experiment with SF-295 CNS it was 54.3 µM; in the experiment on SNB-75 CNS, 23.4 µM; with RPMI-8226 leukemia, more than 100 µM.
Regarding `CCOC(=O)c1ccc(NC(=O)NC2=NCCS2)cc1`, the GI50 in the experiment with SN12C renal is 0.954 µM; in the experiment with IGROV1 ovarian it was 2.11 µM; with MDA-MB-231 breast, 1.64 µM; in the experiment on OVCAR-8 ovarian it was 1.98 µM; with UO-31 renal, 5.13 µM; with SF-539 CNS, 0.381 µM. For the same molecule, the GI50 in the experiment on SNB-19 CNS is 2.86 µM; in the experiment with SF-295 CNS, 0.619 µM; with SNB-75 CNS, 0.252 µM; in the experiment on RPMI-8226 leukemia it was 1.93 µM. Also, the TGI in the experiment on SN12C renal was more than 100 µM; with IGROV1 ovarian it was more than 100 µM; in the experiment on MDA-MB-231 breast it was more than 100 µM; in the experiment with OVCAR-8 ovarian, more than 100 µM; in the experiment on UO-31 renal it was more than 100 µM; in the experiment on SF-539 CNS, 2.27 µM. For the same molecule, the TGI was more than 100 µM in the experiment with SNB-19 CNS, 6.13 µM in the experiment with SF-295 CNS, more than 100 µM in the experiment with SNB-75 CNS and more than 100 µM in the experiment on RPMI-8226 leukemia.
Turning to `CC(C)(C)[Si](C)(C)OC1[C@@H](CNC(N)=O)O[C@@H](n2cnc3c(NC(=O)Nc4ccccc4)ncnc32)[C@H]1O[Si](C)(C)C(C)(C)C` (stereo partly drawn), the GI50 is 0.916 µM in the experiment on SN12C renal; 2.12 µM in the experiment on IGROV1 ovarian; 5.49 µM in the experiment on MDA-MB-231 breast; 1.77 µM with OVCAR-8 ovarian; 1.92 µM in the experiment on UO-31 renal; 6.73 µM in the experiment on SF-539 CNS. The GI50 with SNB-19 CNS is 5.7 µM; in the experiment with SF-295 CNS it was 2.04 µM; in the experiment with SNB-75 CNS it was 3.73 µM; in the experiment on RPMI-8226 leukemia, 1.12 µM. For the same molecule, the TGI is 1.84 µM in the experiment on SN12C renal; 7.36 µM with IGROV1 ovarian; 12 µM in the experiment on MDA-MB-231 breast; 7.32 µM in the experiment on OVCAR-8 ovarian; 8.29 µM with UO-31 renal; 13.6 µM in the experiment on SF-539 CNS. In addition, the TGI in the experiment with SNB-19 CNS amounted to 12.4 µM; in the experiment with SF-295 CNS, 7.9 µM; in the experiment with SNB-75 CNS, 10.9 µM; in the experiment with RPMI-8226 leukemia, 2.63 µM.
For `Cn1c(=O)n(C)c2cc(CNCCNc3ccnc4cc(Cl)ccc34)ccc21`, the GI50 is 45.7 µM with SN12C renal; 37.4 µM with IGROV1 ovarian; 11.2 µM with MDA-MB-231 breast; 38.2 µM in the experiment with OVCAR-8 ovarian; 23.3 µM with UO-31 renal; 14.7 µM with SF-539 CNS. Further, the GI50 with SNB-19 CNS is 27.9 µM; in the experiment on SF-295 CNS, 15.3 µM; with SNB-75 CNS, 13.1 µM; in the experiment with RPMI-8226 leukemia, 20.9 µM. Also, the TGI in the experiment on SN12C renal is more than 100 µM; in the experiment with IGROV1 ovarian, more than 100 µM; in the experiment on MDA-MB-231 breast, 45.2 µM; in the experiment with OVCAR-8 ovarian, more than 100 µM; in the experiment on UO-31 renal, more than 100 µM; with SF-539 CNS, 29.4 µM. For the same molecule, the TGI in the experiment on SNB-19 CNS is more than 100 µM; in the experiment on SF-295 CNS it was 40.1 µM; with SNB-75 CNS, 35.6 µM; in the experiment on RPMI-8226 leukemia it was 65.6 µM.
As to `CCn1cc(/C=C2\Oc3cc(OCC#N)ccc3C2=O)c2cc(OC)ccc21`, the GI50 in the experiment on SN12C renal is 0.711 µM; in the experiment on IGROV1 ovarian, 0.509 µM; with MDA-MB-231 breast it was 1.47 µM; in the experiment on OVCAR-8 ovarian, 0.53 µM; with UO-31 renal, 0.669 µM; in the experiment on SF-539 CNS, 0.113 µM. Also, the GI50 with SNB-19 CNS is 0.385 µM; in the experiment with SF-295 CNS, 0.221 µM; in the experiment on SNB-75 CNS, 0.527 µM; in the experiment on RPMI-8226 leukemia, 0.214 µM. Further, the TGI was more than 100 µM with SN12C renal; more than 100 µM with IGROV1 ovarian; more than 77.3 µM in the experiment with MDA-MB-231 breast; more than 100 µM in the experiment on OVCAR-8 ovarian; more than 100 µM in the experiment with UO-31 renal; 0.818 µM in the experiment with SF-539 CNS. Also, the TGI in the experiment on SNB-19 CNS was more than 69.2 µM; with SF-295 CNS it was 20.7 µM; in the experiment with RPMI-8226 leukemia it was more than 72.5 µM.
On to `FC(F)(F)c1ccc(-c2nn3ncccc3c2-c2ccnc(Nc3ccc4c(c3)OCCO4)n2)cc1`, for which the GI50 in the experiment with SN12C renal is 9.77 µM; with IGROV1 ovarian, 5.19 µM; in the experiment with MDA-MB-231 breast it was 3.49 µM; in the experiment with OVCAR-8 ovarian, 13.2 µM; with UO-31 renal it was 3 µM; with SF-539 CNS, more than 19.7 µM. For the same molecule, the GI50 with SNB-19 CNS is more than 25 µM; with SF-295 CNS, 6.91 µM; in the experiment on SNB-75 CNS it was more than 8.49 µM; with RPMI-8226 leukemia, 5.97 µM. Also, the TGI in the experiment on SN12C renal is more than 25 µM; in the experiment with IGROV1 ovarian it was more than 25 µM; in the experiment on MDA-MB-231 breast it was more than 21.9 µM; in the experiment on OVCAR-8 ovarian, more than 25 µM; in the experiment with UO-31 renal it was more than 21.9 µM; in the experiment with SF-539 CNS, more than 25 µM. In addition, the TGI in the experiment with SNB-19 CNS was more than 25 µM; in the experiment on SF-295 CNS, more than 25 µM; in the experiment on SNB-75 CNS, more than 25 µM; in the experiment on RPMI-8226 leukemia, more than 20.4 µM.
Regarding `COc1cc([C@@H]2c3cc4c(cc3[C@H](OC(C)=O)[C@H]3COC(=O)[C@@H]23)OCO4)cc(OC)c1OC`, the GI50 was 0.759 µM with SN12C renal; 0.401 µM in the experiment with IGROV1 ovarian; 0.388 µM in the experiment on MDA-MB-231 breast; 0.469 µM with OVCAR-8 ovarian; 0.493 µM in the experiment with UO-31 renal; 0.216 µM with SF-539 CNS. Further, the GI50 was 0.393 µM in the experiment with SNB-19 CNS, 0.296 µM in the experiment on SF-295 CNS and 0.445 µM in the experiment on RPMI-8226 leukemia. Moreover, the TGI is more than 100 µM with SN12C renal; more than 62.5 µM with IGROV1 ovarian; 3.44 µM with MDA-MB-231 breast; more than 100 µM with OVCAR-8 ovarian; more than 100 µM in the experiment with UO-31 renal; 0.526 µM in the experiment with SF-539 CNS. Also, the TGI in the experiment with SNB-19 CNS, with SF-295 CNS, with SNB-75 CNS and in the experiment with RPMI-8226 leukemia was more than 100 µM throughout.
